Measurements: patent publication US8785452B2, “Anti-infective compounds” (priority 2008, dated 2014)
Like-named read-outs stand apart in the source and are kept apart here.

Assays:
[1] = system: Raw264.7 cells; assay: Cell number (CellNb) from image analysis of the phenotypic cell-based assay; conditions: for Primary QIM CellNb: primary screen, 20 μM; for QIM Confirm CellNb 0.2 uM / QIM Confirm CellNb 2 uM / QIM Confirm CellNb 20 uM: confirmation
[2] = system: Raw264.7 cells; conditions: mouse, 5 days; for Primary QIM CellNb: 20 μM
[3] = system: M. tuberculosis H37Rv-GFP; assay: microbe, parasite or virus in culture; format: cell-based, Mycobacterium tuberculosis; conditions: Mycobacterium tuberculosis, H37RV, Macrophage; for inhibition at 0.2 µM: read-out: QIM Confirm % Inhibition 0.2 uM; for inhibition at 2 µM: read-out: QIM Confirm % Inhibition 2 uM
[4] = system: M. tuberculosis H37Rv-GFP; assay: microbe, parasite or virus in culture; format: cell-based; conditions: Mycobacterium tuberculosis; for inhibition at 0.2 µM: read-out: QUM Confirm % Inhibition 0.2 uM; for inhibition at 2 µM: read-out: QUM Confirm % Inhibition 2 uM; for inhibition at 20 µM: read-out: QUM Confirm % Inhibition 20 uM
[5] = confirmation, 20 uM, read-out: QIM Confirm % Inhibition 20 uM
[6] = primary screen, 20 μM, read-out: Primary QIM % Inhibition
[7] = confirmation, 20 uM, intracellular, read-out: QIM Confirm % Inhibition 20 uM
[8] = primary screen, 20 μM, intracellular, read-out: Primary QIM % Inhibition

SMILES	Primary QIM CellNb [1]	Primary QIM CellNb [2]	inhibition at 20 µM [3, 5]	inhibition at 20 µM [3, 6]	inhibition at 20 µM [3, 7]	inhibition at 20 µM [3, 8]	QIM Confirm CellNb 20 uM ([2]; 20 uM)	QIM Confirm CellNb 0.2 uM [2]	QIM Confirm CellNb 0.2 uM [1]	QIM Confirm CellNb 2 uM [1]	QIM Confirm CellNb 20 uM [1]	inhibition at 0.2 µM ([3]; confirmation, intracellular)	inhibition at 2 µM ([3]; confirmation, intracellular)	inhibition at 0.2 µM [4]	inhibition at 2 µM [4]	inhibition at 20 µM [4]
CCN(CC)c1ccc(/C=N/NC(=O)c2cccs2)c(O)c1 [IPK 000 103 76]	47.8	−1.7	74.5%	85.7%												
COc1cc(/C=N/NC(=O)c2ccncc2)cc(Br)c1OC [IPK 000 078 53]	386.0	95.6	107%	84%												
NNC(=O)c1ccc(COc2ccccc2Br)o1 [IPK 000 124 64]	501.5	54.7	78.2%	79.9%												
NNC(=O)c1ccc(COc2ccc3c(c2)CCC3)o1 [IPK 000 123 30]	296.8	72.5	64.1%	77.2%												
O=C(N/N=C1\C(=O)N(Cc2cccc3ccccc23)c2ccccc21)c1cc(-c2ccccc2)n[nH]1 [IPK 000 103 78]	263.5	3.5	98%	94.6%												
CCOc1ccc2ccccc2c1/C=N/NC(=O)c1ccncc1 [IPK 000 043 62]	393.8	98.8	104%	98.2%												
CCOc1ccc(NC(=S)Nc2ccccc2)cc1 [IPK 000 108 78]	200.3	38.3	68.8%	78.8%												
COc1cc(CN(C)NC(=O)c2ccccn2)ccc1OC(=O)c1cccs1 [IPK 000 058 20]	344.8	66.6	44.3%	98.1%												
CCCOC(=O)C1=C(C)NC2=C(C(=O)CC(c3ccccc3)C2)C1c1cccc(O)c1 (centres unmarked) [IPK 000 085 99]	67.3	4.5	49.5%	37.1%												
CCOC(=O)/C=C/C(=O)Nc1sc(Cc2ccccc2)c(C)c1C(N)=O [IPK 000 110 16]	179.5	6.0	86%	59%												
CN(C)c1ccc(/C=C2/c3ccccc3-c3ccc(C(=O)CCCCN4CCCCC4)cc32)cc1 [IPK 000 198 53]		10.2			41.9%	58.5%										
O=C(Nc1ccccc1)Nc1ccc(Br)c(Cl)c1 [IPK 000 170 27]					18.9%	-72.4%	46.9									
CSc1nsc(SCc2ccc(C(=O)Nc3ccc(C)cc3C)cc2)n1 [IPK 000 125 08]					65.1%	72.8%		388.9								
CN1CCN(c2nc(Nc3ccc(OC(F)(F)F)cc3)nc(OCC(F)(F)F)n2)CC1 [IPK 000 008 12]	396.3		78.4%	64.1%					292.9	225.6	248.0	2.7%	18.9%	36.5%	39.7%	48%
O=C(Oc1cccc2ncccc12)c1ccccc1F [IPK 000 018 65]	218.0		39.2%	23.1%					256.6	218.3	256.4	28%	14%	36.4%	54%	99%
O=C(Oc1cccc2cccnc12)c1cccc([N+](=O)[O-])c1 [IPK 000 018 66]	63.3		16.7%	-26.8%					258.1	296.6	130.4	8.6%	0.4%	39.3%	72%	99.6%
CCCCc1ccc(/C=N/NC(=O)c2ccncc2)cc1 [IPK 000 013 69]	327.5		58.6%	91.3%					405.8	532.1	443.3	68.9%	105%	51.2%	79.1%	62.4%
O=C(NN1C(=O)c2ccc(Br)cc2C1=O)c1ccncc1 [IPK 000 008 02]	305.8		98%	83.2%					306.6	218.8	484.5	0.7%	9.3%	36.4%	31.9%	98.2%
Clc1ccc(Nc2nc3nonc3nc2Nc2ccc(Cl)cc2)cc1 [IPK 000 003 90]	78.0		67.9%	15.7%					142.3	75.6	133.4	2.2%	43.2%	44%	68.8%	72.7%
Cc1ccc2ccc3ccc(C)nc3c2n1 [IPK 000 002 03]	77.0		-12.3%	-28.5%					241.4	92.0	148.0	-2%	7.7%	32.5%	52.4%	69.7%
O=[N+]([O-])c1ccc(/C=N/c2ccccc2O)cc1 [IPK 000 040 14]	95.5		18.1%	-38.6%					321.4	262.3	330.0	20.4%	15.6%	38.7%	46.8%	68.4%
O=C(N/N=C/c1cc(Br)cc(Br)c1O)c1ccncc1 [IPK 000 009 33]	314.5		56.9%	79.9%					264.8	475.9	333.6	8.5%	92.5%	31.8%	44.5%	69.8%
O=C(N/N=C/c1ccccc1O)c1ccncc1 [IPK 000 041 45]	324.5		87.2%	88.6%					437.4	527.9	243.8	56.7%	103%	38.4%	47.4%	100%
CC(C)c1ccc(CNC(=O)c2cc([N+](=O)[O-])cc([N+](=O)[O-])c2)cc1 [IPK 000 027 78]	332.0		96.3%	79.6%					366.0	543.5	499.4	33%	99.3%	71.7%	97.5%	78.2%
Cc1nn(-c2ccccc2)c(Cl)c1/C=N/NC(=O)c1ccccn1 [IPK 000 001 90]	435.5		96.5%	91.9%					190.0	173.6	317.6	12.7%	13.2%	34.6%	29.4%	42.3%
Brc1ccc(/C=N/Nc2nc(N3CCOCC3)nc(N3CCOCC3)n2)o1 [IPK 000 011 65]	145.5		41.9%	6.5%					259.6	336.5	201.1	4.7%	23.4%	39.8%	40.6%	96.3%
c1ccc(COc2ccc(NCCc3ccncc3)cc2)cc1 [IPK 000 016 00]	93.0		37.9%	-19%					278.8	265.4	300.3	3.2%	19.4%	47.1%	48.6%	68%
Cc1cc(C)cc(NC(=O)c2cccs2)c1 [IPK 000 192 45]					65.4%	88.8%		334.0								
